Assay results reported in patent US7935819B2, “Cyclic urea derivatives, preparation thereof and pharmaceutical use thereof as kinase inhibitors” (Aventis Pharma S.A., priority 2006, dated 2011).
Read-outs that look alike come from different tables or passages of the source.

Columns and labels:
[1] = molecular target: MEF-IGF1R cells (stable clone transfected with hIGF-1R) (Homo sapiens, UniProt P08069); test: Proliferation/viability of MEF-IGF1R (Test C), [14C]thymidine incorporation; type: cell-based; conditions: rhIGF1 100 ng/mL, 72 hours, read-out: Test C IC50
Protocol: C) Measurement of the Proliferation/Viability of MEF-IGF1R
Cell culture: the MEF-IGF1R cells (stable clone of cells transfected with the receptor hIGF-1R) are cultured at 37° C. under 5% CO2 in EMEM medium containing 10% FCS.
Test procedure: the cells are seeded at 5000 cells per well in 96-well Cytostar plates (Amersham) with 0.2 mL of EMEM culture medium at 37° C. for 18 hours. The cells are then washed twice with EMEM medium and left to culture without serum for 24 hours. The compounds are then added at various concentrations in the presence of rhIGF1 (100 ng/mL) and 0.1 μCi of Thymidine [^14C] (specific activity ˜50 mCi/mmol) to give 0.2 mL of volume per well. After incubation for 72 hours in the presence of the compound, at 37° C. under 5% CO2, the incorporation of Thymidine [^14C] is measured by counting the radioactivity on a Microbeta trilux counter (Perkin-Elmer). The IC50 is determined from 10 increasing concentrations of the compound.
(§1) (i) The tests are performed in duplicate and the mean of the two tests is calculated.
(§2) (ii) The value of the signal of the maximum response is calculated from the positive control: cells stimulated with IGF1 without compound.
(§3) (iii) Value of the signal of the minimum response is calculated from the negative control: cells not stimulated with IGF1 without compound.
(§4) (iv) By using these values as maximum (100%) and minimum (0%), respectively, the data were normalized so as to give a percentage of the maximum response.
(§5) (v) A curve of dose response is plotted and the IC50 (the concentration of which the compound induces a 50% decrease in the signal) of the compound is calculated by non-linear regression analysis.

[2] = molecular target: T1, IGF-1R (human cytoplasmic domain fused with GST) (Homo sapiens, UniProt P08069); test: Kinase IGF-1R test (Test A): inhibition of autophosphorylation of the enzyme, HTRF; type: biochemical; conditions: 120 μM ATP
T1 construct: The human cytoplasmic domain of IGF-1R was cloned by fusion with glutathione S-transferase (GST); made in house; host or cells: SF21 insect cells (baculovirus, pFastBac-GST)
Protocol: A) Experimental Protocol for the Kinase IGF-1R Test:
The inhibitory activity of the compounds on IGF1R is determined by measuring the inhibition of autophosphorylation of the enzyme using a time-resolved fluorescence test (HTRF). The human cytoplasmic domain of IGF-1R was cloned by fusion with glutathione S-transferase (GST) in the baculovirus expression vector pFastBac-GST. The protein is expressed in the SF21 cells and purified to about 80% homogeneity. For the enzymatic test, the test compound at 10 mM dissolved in DMSO is diluted in 1/3 steps in a 50 mM Hepes, pH 7.5, 5 mM MnCl2, 50 mM NaCl, 3% Glycerol, 0.025% Tween 20 buffer. To measure the inhibition, the successive dilutions of the compound are preincubated for 30 minutes and 90 minutes in the presence of 5 nM of enzyme, the final DMSO concentration not exceeding 1%. The enzymatic reaction is initiated to have a final ATP concentration of 120 μM, and is stopped after 5 minutes by addition of 100 mM Hepes, pH 7.0 buffer containing 0.4 M of potassium fluoride, 133 mM EDTA, 0.1% BSA, the XL665-labelled antibody anti-GST and the anti-phosphotyrosine antibody conjugated to europium cryptate Eu—K (Cis-Bio Int.). The characteristics of the two fluorophores, XL-665 and Eu—K, are available in G. Mathis et al., Anticancer Research, 1997, 17, pages 3011-3014. The energy transfer between the excited europium cryptate to the acceptor XL665 is proportional to the degree of autophosphorylation of IGF-1R. The specific long-lasting signal of XL-665 is measured in a GENios Pro TECAN plate counter. The inhibition of autophosphorylation of IGF-1R at time 30 minutes and 90 minutes with the test compounds of the invention is calculated relative to a 1% in DMSO control, whose activity is measured in the absence of compound. The curve representing the percentage of inhibition as a function of the log of the concentration is established to determine the concentration corresponding to 50% inhibition (IC50).

[3] = molecular target: T2, IGF1R in MCF-7 cells (Homo sapiens, UniProt P08069); test: Autophosphorylation of IGF-1R in MCF7 cells after stimulation with IGF-1 (Test B), ELISA; type: cell-based; conditions: compound added one hour before IGF1 stimulation (10 minutes)
T2 construct: endogenous in cells; host or cells: MCF-7 cells
Protocol: B) Measurement of the Autophosphorylation of IGF-1r in MCF7 Cells after Stimulation with IGF-1
Cell Culturing and Execution of the Test:
The autophosphorylation of IGF1R in the IGF1-induced cells is evaluated by means of an ELISA technique (Enzyme Linked ImmunoSorbent Assay). The MCF-7 are seeded at 60 000 cells per well in 6-well plates and incubated at 37° C., 5% CO2 in medium containing 10% serum. After one night in 10% serum, the cells are deprived of serum for 24 hours. The compounds are added to the medium one hour before stimulation with IGF1. After 10 minutes of stimulation with IGF1, the cells are lysed with a buffer (Hepes 50 mM pH 7.6, Triton X100 1%, orthovanadate 2 mM, protease inhibitor cocktail). The cell lysates are incubated on a 96-well plate precoated with an anti-IGF1R antibody, followed by incubation with an anti-phosphotyrosine antibody coupled to the enzyme peroxidase. The level of peroxidase activity (measured by OD with a luminescent substrate) reflects the phosphorylation status of the receptor.
as §1, §2, §3, §4, §5

[4] = preincubation with enzyme 30 minutes, read-out: Test A 30′ IC50
[5] = preincubation with enzyme 90 minutes, read-out: Test A 90′ IC50

T1 sequence (P08069 960-1367 limits assumed): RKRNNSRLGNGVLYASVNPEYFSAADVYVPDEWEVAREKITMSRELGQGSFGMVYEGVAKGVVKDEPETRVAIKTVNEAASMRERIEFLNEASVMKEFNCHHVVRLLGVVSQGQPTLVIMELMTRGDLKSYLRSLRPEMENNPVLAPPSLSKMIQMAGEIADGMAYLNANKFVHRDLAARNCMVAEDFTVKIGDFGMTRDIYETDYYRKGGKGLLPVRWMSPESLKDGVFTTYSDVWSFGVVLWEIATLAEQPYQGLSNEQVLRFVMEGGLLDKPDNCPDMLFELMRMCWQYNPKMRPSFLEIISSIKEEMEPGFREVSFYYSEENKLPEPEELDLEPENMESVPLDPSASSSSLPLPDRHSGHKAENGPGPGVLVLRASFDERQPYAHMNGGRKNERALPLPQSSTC
Sequence of MEF-IGF1R cells (stable clone transfected with hIGF-1R) (P08069 whole entry, change not shown): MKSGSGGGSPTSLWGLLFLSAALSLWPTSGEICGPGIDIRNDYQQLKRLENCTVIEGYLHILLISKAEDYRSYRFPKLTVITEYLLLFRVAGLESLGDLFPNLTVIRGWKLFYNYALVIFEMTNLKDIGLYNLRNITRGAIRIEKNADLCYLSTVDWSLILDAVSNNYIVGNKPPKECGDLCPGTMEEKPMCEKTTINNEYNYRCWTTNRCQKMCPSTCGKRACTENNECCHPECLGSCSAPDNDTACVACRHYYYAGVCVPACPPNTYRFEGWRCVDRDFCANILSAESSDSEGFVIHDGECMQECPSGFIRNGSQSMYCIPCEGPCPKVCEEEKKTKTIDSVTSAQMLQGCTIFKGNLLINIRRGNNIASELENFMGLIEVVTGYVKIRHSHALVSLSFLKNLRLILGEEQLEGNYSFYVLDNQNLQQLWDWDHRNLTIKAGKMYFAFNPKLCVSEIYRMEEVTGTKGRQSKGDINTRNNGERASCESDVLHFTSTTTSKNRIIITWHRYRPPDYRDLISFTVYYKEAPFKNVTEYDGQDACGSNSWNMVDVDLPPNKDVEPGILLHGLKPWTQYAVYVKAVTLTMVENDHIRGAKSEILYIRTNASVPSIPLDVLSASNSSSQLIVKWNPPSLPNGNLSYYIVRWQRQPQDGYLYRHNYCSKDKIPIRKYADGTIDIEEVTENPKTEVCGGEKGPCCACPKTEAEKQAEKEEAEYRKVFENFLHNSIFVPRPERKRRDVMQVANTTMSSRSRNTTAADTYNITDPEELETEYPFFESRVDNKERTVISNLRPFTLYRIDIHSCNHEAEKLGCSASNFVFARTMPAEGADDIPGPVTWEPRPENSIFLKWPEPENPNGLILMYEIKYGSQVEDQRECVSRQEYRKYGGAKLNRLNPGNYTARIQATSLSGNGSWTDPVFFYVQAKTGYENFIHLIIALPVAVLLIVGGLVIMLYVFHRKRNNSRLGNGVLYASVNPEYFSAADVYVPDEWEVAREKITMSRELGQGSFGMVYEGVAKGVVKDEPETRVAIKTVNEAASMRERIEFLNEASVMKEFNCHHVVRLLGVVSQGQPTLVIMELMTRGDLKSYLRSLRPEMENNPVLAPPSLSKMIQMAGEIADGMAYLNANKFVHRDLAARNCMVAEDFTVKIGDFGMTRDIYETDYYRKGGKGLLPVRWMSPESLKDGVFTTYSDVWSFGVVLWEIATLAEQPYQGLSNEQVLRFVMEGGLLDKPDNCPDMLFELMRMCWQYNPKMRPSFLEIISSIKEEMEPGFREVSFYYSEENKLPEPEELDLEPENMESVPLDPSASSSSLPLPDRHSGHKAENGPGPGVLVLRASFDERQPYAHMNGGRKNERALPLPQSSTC
T2 sequence (P08069 31-1367): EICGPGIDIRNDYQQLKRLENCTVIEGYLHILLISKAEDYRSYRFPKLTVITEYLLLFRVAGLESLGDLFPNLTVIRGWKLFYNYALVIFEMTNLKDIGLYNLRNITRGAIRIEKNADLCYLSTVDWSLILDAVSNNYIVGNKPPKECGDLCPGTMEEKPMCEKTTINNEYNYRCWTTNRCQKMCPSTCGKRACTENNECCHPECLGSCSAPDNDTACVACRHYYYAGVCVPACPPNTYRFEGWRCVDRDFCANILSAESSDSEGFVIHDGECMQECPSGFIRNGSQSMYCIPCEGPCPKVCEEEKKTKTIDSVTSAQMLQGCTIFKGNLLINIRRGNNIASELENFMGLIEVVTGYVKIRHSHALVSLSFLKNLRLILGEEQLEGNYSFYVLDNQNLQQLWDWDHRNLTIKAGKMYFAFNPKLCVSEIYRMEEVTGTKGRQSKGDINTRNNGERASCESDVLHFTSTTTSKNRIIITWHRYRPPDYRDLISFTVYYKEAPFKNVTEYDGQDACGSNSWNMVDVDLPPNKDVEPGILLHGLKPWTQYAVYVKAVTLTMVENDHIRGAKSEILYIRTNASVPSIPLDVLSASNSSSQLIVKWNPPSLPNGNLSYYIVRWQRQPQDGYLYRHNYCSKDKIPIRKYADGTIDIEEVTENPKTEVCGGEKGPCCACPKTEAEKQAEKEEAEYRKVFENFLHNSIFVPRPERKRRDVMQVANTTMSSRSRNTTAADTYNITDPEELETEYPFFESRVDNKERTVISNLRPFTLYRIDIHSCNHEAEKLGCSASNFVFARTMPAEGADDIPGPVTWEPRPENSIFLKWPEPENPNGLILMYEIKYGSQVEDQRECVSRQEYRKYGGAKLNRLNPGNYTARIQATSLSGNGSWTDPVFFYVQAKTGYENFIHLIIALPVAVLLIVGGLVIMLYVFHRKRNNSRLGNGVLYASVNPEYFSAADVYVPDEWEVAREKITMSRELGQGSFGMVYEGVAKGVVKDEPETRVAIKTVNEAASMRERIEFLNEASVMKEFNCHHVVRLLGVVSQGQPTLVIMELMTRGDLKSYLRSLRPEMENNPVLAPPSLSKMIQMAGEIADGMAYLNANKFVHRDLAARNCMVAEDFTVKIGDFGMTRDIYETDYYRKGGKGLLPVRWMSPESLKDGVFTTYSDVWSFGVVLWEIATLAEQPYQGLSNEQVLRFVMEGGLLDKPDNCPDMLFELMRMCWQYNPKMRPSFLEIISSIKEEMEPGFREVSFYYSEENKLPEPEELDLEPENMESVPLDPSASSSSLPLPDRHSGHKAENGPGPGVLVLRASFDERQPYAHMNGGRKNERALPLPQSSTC

| IC50 [2, 4] | IC50 [2, 5] | IC50 [3] | SMILES | GI50 [1] |
| --- | --- | --- | --- | --- |
| 0.01 to 0.1 µM | 0.01 to 0.1 µM | < 0.01 µM | CC(C)(C)c1ccc(N2C(=O)N(Cc3ccnc(Nc4cccnc4Cl)c3)C(C)(C)C2=O)cc1 [Example 31K, 3-(4-tert-butylphenyl)-1-({2-[(2-chloropyridin-3-yl)amino]pyridin-4-yl}methyl)-5,5-dimethylimidazolidine-2,4-dione] | 0.01 to 0.1 µM |
| 0.01 to 0.1 µM | 0.01 to 0.1 µM | < 0.01 µM | CC(C)(C)c1ccc(N2C(=O)N(Cc3ccnc(NC(=O)N4CCC4)c3)C(C)(C)C2=O)cc1 [Example 18, N-(4-{[3-(4-tert-butylphenyl)-5,5-dimethyl-2,4-dioxoimidazolidin-1-yl]methyl}pyridin-2-yl)azetidine-1-carboxamide] | 0.01 to 0.1 µM |
| > 0.1 µM | 0.01 to 0.1 µM | 0.01 to 0.1 µM | CC(C)(C)c1ccc(N2C(=O)N(Cc3ccnc(Nc4cccc(F)c4)c3)C(C)(C)C2=O)cc1 [Example 31I, 3-(4-tert-butylphenyl)-1-({2-[(3-fluorophenyl)-amino]pyridin-4-yl}methyl)-5,5-dimethylimidazolidine-2,4-dione] | < 0.01 µM |
| > 0.1 µM | 0.01 to 0.1 µM | 0.01 to 0.1 µM | CN(C)CC(=O)N1CC(C)(C)c2ccc(N3C(=O)N(Cc4ccnc(Nc5cccnc5)c4)C(C)(C)C3=O)cc21 [Example 31B, 3-[1-(N,N-dimethylglycyl)-3,3-dimethyl-2,3-dihydro-1H-indol-6-yl]-5,5-dimethyl-1-{[2-(pyridin-3-ylamino)pyridin-4-yl]methyl}imidazolidine-2,4-dione] | < 0.01 µM |
| 0.01 to 0.1 µM | 0.01 to 0.1 µM | 0.01 to 0.1 µM | CC(C)(C)c1ccc(N2C(=O)N(Cc3ccnc(Nc4ccc(O)nc4)c3)C(C)(C)C2=O)cc1 [Example 31M, 3-(4-tert-butylphenyl)-1-({2-[(6-hydroxypyridin-3-yl)amino]pyridin-4-yl}methyl)-5,5-dimethylimidazolidine-2,4-dione] | 0.01 to 0.1 µM |
| 0.01 to 0.1 µM | < 0.01 µM | 0.01 to 0.1 µM | CC(C)(C)c1ccc(N2C(=O)N(Cc3ccnc(NC(N)=O)c3)C(C)(C)C2=O)cc1 [Example 31P, 1-(4-{[3-(4-tert-butylphenyl)-5,5-dimethyl-2,4-dioxoimidazolidin-1-yl]methyl}pyridin-2-yl)urea] | < 0.01 µM |
| 0.01 to 0.1 µM | < 0.01 µM | < 0.01 µM | CC(C)(C)c1ccc(N2C(=O)N(Cc3ccnc(Nc4cncnc4)n3)C(C)(C)C2=O)cc1 [Example 8, 3-(4-tert-butylphenyl)-5,5-dimethyl-1-{[2-(pyrimidin-5-ylamino)pyrimidin-4-yl]methyl}imidazolidine-2,4-dione] | < 0.01 µM |
| > 0.1 µM | 0.01 to 0.1 µM | 0.01 to 0.1 µM | CC(C)(CO)c1ccc(N2C(=O)N(Cc3ccnc(Nc4cccnc4)c3)C(C)(C)C2=O)cc1 [Example 31N, 3-[4-(2-hydroxy-1,1-dimethylethyl)phenyl]-5,5-dimethyl-1-{[2-(pyridin-3-ylamino)pyridin-4-yl]methyl}-imidazolidine-2,4-dione] | > 0.1 µM |
| 0.01 to 0.1 µM | < 0.01 µM | < 0.01 µM | CC(C)(C)c1ccc(N2C(=O)N(Cc3ccnc(Nc4cccc(CCN5CCCC5)c4)c3)C(C)(C)C2=O)cc1 [Example 31H, 3-(4-tert-butylphenyl)-5,5-dimethyl-1-[(2-{[3-(2-pyrrolidin-1-ylethyl)phenyl]amino}pyridin-4-yl)methyl]imidazolidine-2,4-dione] | < 0.01 µM |
| 0.01 to 0.1 µM | < 0.01 µM | < 0.01 µM | CC(C)(C)c1ccc(N2C(=O)N(Cc3ccnc(Nc4cccnc4)n3)C(C)(C)C2=O)cc1 [Example 1, 3-(4-tert-butylphenyl)-5,5-dimethyl-1-[2-(pyridin-3-ylamino)pyrimidin-4-ylmethyl]imidazolidine-2,4-dione] | < 0.01 µM |
| 0.01 to 0.1 µM | 0.01 to 0.1 µM | 0.01 to 0.1 µM | CC(C)(C)c1ccc(N2C(=O)N(Cc3ccnc(NC(=O)NC4CCC4)c3)C(C)(C)C2=O)cc1 [Example 14, 1-(4-{[3-(4-tert-butylphenyl)-5,5-dimethyl-2,4-dioxoimidazolidin-1-yl]methyl}pyridin-2-yl)-3-cyclobutylurea] | 0.01 to 0.1 µM |
| 0.01 to 0.1 µM | < 0.01 µM | < 0.01 µM | CC(C)(C)c1ccc(N2C(=O)N(Cc3ccnc(Nc4ccc(CCN5CCCC5)cc4)c3)C(C)(C)C2=O)cc1 [Example 31U, 3-(4-tert-butylphenyl)-5,5-dimethyl-1-[(2-{[4-(2-pyrrolidin-1-ylethyl)phenyl]amino}pyridin-4-yl)methyl]imidazolidine-2,4-dione] | < 0.01 µM |
| 0.01 to 0.1 µM | 0.01 to 0.1 µM | – | CC(C)(C)c1ccc(N2C(=O)N(Cc3ccnc(NC(=O)NCCN4CCCC4)c3)C(C)(C)C2=O)cc1 [Example 11, 1-(4-{[3-(4-tert-butylphenyl)-5,5-dimethyl-2,4-dioxoimidazolidin-1-yl]methyl}pyridin-2-yl)-3-(2-pyrrolidin-1-ylethyl)urea] | > 0.1 µM |
| 0.01 to 0.1 µM | 0.01 to 0.1 µM | – | CC(C)(C)c1ccc(N2C(=O)N(Cc3ccnc(NC(=O)NCCCN4CCCC4)c3)C(C)(C)C2=O)cc1 [Example 9, 1-(4-{[3-(4-tert-butylphenyl)-5,5-dimethyl-2,4-dioxoimidazolidin-1-yl]methyl}pyridin-2-yl)-3-(3-pyrrolidin-1-ylpropyl)urea] | > 0.1 µM |
| 0.01 to 0.1 µM | 0.01 to 0.1 µM | – | CC1(C)CN(C(=O)CNC2CCCC2)c2cc(N3C(=O)N(Cc4ccnc(Nc5cccnc5)c4)C(C)(C)C3=O)ccc21 [Example 4, 3-[1-(N-cyclopentylglycyl)-3,3-dimethyl-2,3-dihydro-1H-indol-6-yl]-5,5-dimethyl-1-{[2-(pyridin-3-ylamino)pyridin-4-yl]methyl}imidazolidine-2,4-dione] | < 0.01 µM |
| > 0.1 µM | 0.01 to 0.1 µM | – | CN(C)C(=O)Nc1cc(CN2C(=O)N(c3ccc(OC(F)(F)F)c(NC(=O)[C@H](N)c4ccccc4)c3)C(=O)C2(C)C)ccn1 [Example 6a, (2R)-2-amino-N-{5-[3-({2-[(dimethylcarbamoyl)amino]pyridin-4-yl}methyl)-4,4-dimethyl-2,5-dioxoimidazolidin-1-yl]-2-(trifluoromethoxy)phenyl}-2-phenylacetamide] | < 0.01 µM |
